Test results from PMC12389711, “Study on the Excretion of a New Antihypertensive Drug 221s (2,9) in Rats” (Pharmaceuticals, 2025).
Where two headings read alike, the source gives them in different places.

Tests used:
[1] = system: spontaneously hypertensive rats (SHR); parameters: method as in PMID 37446639; settings: cited from earlier work
[2] = system: ACE; assay: ACE content in murine serum, cerebral tissue and renal compartments (preliminary data); type: in vivo; settings: cerebral tissue, renal compartments
[3] = Excretion study of unchanged drug in urine, feces and bile after oral administration (UPLC-MS/MS); type: in vivo, Sprague-Dawley rats; settings: 30 mg/kg oral; for dose excreted: male, Sprague-Dawley, rat, at 72 h
Description: According to previous data, analytical separation was performed using an ultra-performance liquid chromatography-tandem mass spectrometry (UPLC-MS/MS) platform comprising a Waters ACQUITY UPLC H-Class (Waters, Milford, CT, USA) system coupled to an AB Sciex Triple Quad 6500 mass spectrometer (AB Sciex, Boston, MA, USA). Chromatographic resolution was achieved on a Waters ACQUITY UPLC BEH C18 column (1.7 μm, 2.1 × 50 mm) maintained at 40 °C. The mobile phase system incorporated two components: solvent A (0.02% formic acid and 5 mM NH4F in deionized water) and solvent B (acetonitrile), delivered at 0.2 mL/min with a 10 μL injection volume. The gradient program was configured as follows: 55% solvent A (0.0–0.6 min), 5% solvent A (0.6–2.5 min), followed by re-equilibration at 55% solvent A (2.5–5.0 min).
Mass spectrometric detection utilized positive electrospray ionization (ESI+) in MRM mode, monitoring precursor-to-product ion transitions at m/z 525.1→389.1 (221s (2,9)) and 357.0→220.9 (IS). Instrument parameters were optimized as follows: curtain gas 25 psi, ion source temperature 500 °C, GS1/GS2 pressures 50/40 psi, ion spray voltage 5 kV, and collision gas pressure 10 psi. Compound-dependent parameter settings included decluttering potential (DP), entrance potential (EP), collision cell exit potential (CXP), and collision energy (CE) of 160/10/5/63 V for 221s (2,9) and 70/10/5/20 V for IS. Data processing was executed using Analyst software (v1.6.3).
Six male Sprague-Dawley (SD) rats aged 8–10 weeks (body weight: 220–250 g) were individually housed in metabolic cages. Following a 12 h fasting period with free access to water, baseline urinary and fecal samples were collected as blank controls prior to drug administration. Samples of urine and feces were collected from 0–4 h, 4–8 h, 8–12 h, 12–24 h, 24–36 h, 36–48 h, 48–60 h, 60–72 h, and 72–84 h post-administration of 221s (2,9) with an oral dosage of 30 mg/kg. Urine samples were quantitatively measured for volume before storage at −80 °C while fecal samples were dried, pulverized, and weighed prior to preservation at −80 °C.
Six male SD rats were fasted for 12 h prior to drug administration, with free access to water. After being anesthetized with isoflurane, the rats were positioned supine on surgical platforms for common bile duct cannulation. Blank bile samples were collected following stabilization of bile flow. Following oral gavage of 30 mg/kg 221s (2,9), bile samples were sequentially collected during 0–2 h, 2–4 h, 4–8 h, 8–12 h, 12–24 h, 24–36 h, 36–48 h, and 48–72 h intervals. All biliary specimens were volumetrically measured and cryopreserved at −80 °C for subsequent analysis. Hydration maintenance was ensured through intraperitoneal administration of physiological saline during experimental procedures.
A total of 10 μL of IS (1 μg/mL) was added to each urinary sample (100 μL), followed by the addition of three volumes of acetonitrile. The mixtures were vortexed and centrifuged twice. Then, the supernatants were concentrated, lyophilized and reconstituted in 100 μL of acetonitrile. The supernatants were subjected to instrumental analysis after final centrifugation.
Fecal samples (100 mg) were homogenized with three volumes of saline via ultrasonication for 10 min. Then, 10 μL of IS (1 μg/mL) was added, before adding three volumes of acetonitrile. […] After vortexing and dual centrifugation, the supernatant was concentrated, lyophilized, and reconstituted in 100 μL of acetonitrile. The supernatants were subjected to instrument for analysis after final centrifugation.
Biliary samples (100 μL) were precisely aliquoted and added with 10 μL IS (1 μg/mL). Following homogenization, three volumes of acetonitrile were added to precipitate impurities. After vortexing and centrifuging twice, the supernatant was concentrated, lyophilized, and reconstituted in 100 μL of acetonitrile. […]

[4] = Stability in rat urine, feces and bile matrices (QC samples); type: in vitro ADME
Description: The stability of 221s (2,9) in rat urine, feces, and bile matrices was evaluated using QC samples at three concentration levels (10, 1000, and 1600 ng/mL) across six replicates under four conditions per matrix: three freeze–thaw cycles, short-term storage (room temperature, 2 h), long-term storage (−80 °C, 30 days), and autosampler rack storage (4 °C, 24 h). Stability was quantified by comparing post-storage concentrations (normalized to freshly prepared QC samples analyzed in the same batch) with nominal values, with deviations ≤15% considered acceptable. Dilution reliability was assessed by 5-fold dilution of QC samples (1000/1600 ng/mL) in each matrix using blank rat plasma. Dilution accuracy was verified by comparing measured concentrations (post-dilution factor correction) to nominal values, with acceptable criteria defined as ≤15% relative error (RE) and ≤15% relative standard deviation (RSD).

[5] = system: mice; parameters: method as in doi:10.19803/j.1672-8629.20220529; settings: cited from earlier work
[6] = system: spontaneously hypertensive rats (SHR); assay: Serum creatinine and renal NOX2 expression in SHR; type: in vivo, rat
[7] = system: angiotensin II (Ang II) and angiotensin-converting enzyme (ACE); parameters: method as in PMID 37446639; settings: SHR; cited from earlier work
[8] = parameters: method as in PMID 23607051; settings: cited from earlier work

CC(NC(=O)C(O)Cc1ccc(O)c(O)c1)C(=O)N1CCCC1C(=O)OC1CC2CCC1(C)C2(C)C (stereo not drawn) [221s (2,9)]
antihypertensive efficacy compared with captopril [1]: comparable to that of captopril
reduction of diastolic blood pressure [1]: 35 mmHg
reduction of systolic blood pressure [1]: 50 mmHg
ACE content [2]: reduces ACE content
cumulative fecal output ([3]; feces, at 48 h, rats, unchanged drug): 36,726.31 ± 5507 ng
fecal excretion rate ([3]; feces, between 4 and 8 h, rats, unchanged drug): 7994.29 ± 953.75 ng/h
dose excreted ([3]; bile, bile duct cannulated rats, read-out: recovery of unchanged drug in bile (accumulative excretion rate, % of administered dose)): 0.00044 ± 2e-05%
dose excreted ([3]; feces, rats, read-out: recovery of unchanged drug in feces (accumulative excretion rate, % of administered dose)): 0.73 ± 0.069%
dose excreted ([3]; urine, rats, read-out: recovery of unchanged drug in urine (accumulative excretion rate, % of administered dose)): 0.02 ± 0.021%
total recovery of unchanged drug across all matrices (% of administered dose) ([3]; urine + feces + bile, over 72 h, rats): below 1%
peak urinary excretion rate ([3]; urine, at 8 h post-dosing, rats, unchanged drug): 138.81 ± 15.56 ng/h
cumulative urinary excretion ([3]; urine, plateau by 48 h, rats, unchanged drug): 1479.81 ± 155.7 ng
Stability RE (%) ([4]; bile, autosampler rack (4 °C) for 24 h, spiked 10 ng/mL): −4.4%
Stability RE (%) ([4]; bile, autosampler rack (4 °C) for 24 h, spiked 1000 ng/mL): −3.2%
Stability RE (%) ([4]; bile, autosampler rack (4 °C) for 24 h, spiked 1600 ng/mL): −3.8%
Stability RE (%) ([4]; bile, room temperature for 2 h, spiked 10 ng/mL): −5.2%
Stability RE (%) ([4]; bile, room temperature for 2 h, spiked 1000 ng/mL): −4.5%
Stability RE (%) ([4]; bile, room temperature for 2 h, spiked 1600 ng/mL): 5.1%
Stability RE (%) ([4]; bile, three freeze/thaw cycles, spiked 10 ng/mL): −8.4%
Stability RE (%) ([4]; bile, three freeze/thaw cycles, spiked 1000 ng/mL): −4.1%
Stability RE (%) ([4]; bile, three freeze/thaw cycles, spiked 1600 ng/mL): 4.2%
Stability RE (%) ([4]; bile, −80 °C for 30 days, spiked 10 ng/mL): −3.1%
Stability RE (%) ([4]; bile, −80 °C for 30 days, spiked 1000 ng/mL): 1.5%
Stability RE (%) ([4]; bile, −80 °C for 30 days, spiked 1600 ng/mL): 3.4%
Stability RE (%) ([4]; feces, autosampler rack (4 °C) for 24 h, spiked 10 ng/mL): −4.9%
Stability RE (%) ([4]; feces, autosampler rack (4 °C) for 24 h, spiked 1000 ng/mL): −2.2%
Stability RE (%) ([4]; feces, autosampler rack (4 °C) for 24 h, spiked 1600 ng/mL): 4.6%
Stability RE (%) ([4]; feces, room temperature for 2 h, spiked 10 ng/mL): −6.7%
Stability RE (%) ([4]; feces, room temperature for 2 h, spiked 1000 ng/mL): −3.6%
Stability RE (%) ([4]; feces, room temperature for 2 h, spiked 1600 ng/mL): −4.7%
Stability RE (%) ([4]; feces, three freeze/thaw cycles, spiked 10 ng/mL): −5.3%
Stability RE (%) ([4]; feces, three freeze/thaw cycles, spiked 1000 ng/mL): −4.8%
Stability RE (%) ([4]; feces, three freeze/thaw cycles, spiked 1600 ng/mL): −3.2%
Stability RE (%) ([4]; feces, −80 °C for 30 days, spiked 10 ng/mL): −6.4%
Stability RE (%) ([4]; feces, −80 °C for 30 days, spiked 1000 ng/mL): −5.3%
Stability RE (%) ([4]; feces, −80 °C for 30 days, spiked 1600 ng/mL): 2.8%
degradation in urinary/fecal/biliary samples ([4]; room temperature 2 h, three freeze-thaw cycles, −80 °C 30 days, 4 °C autosampler 24 h): no significant degradation
Stability RE (%) ([4]; urine, autosampler rack (4 °C) for 24 h, spiked 10 ng/mL): −7.3%
Stability RE (%) ([4]; urine, autosampler rack (4 °C) for 24 h, spiked 1000 ng/mL): −6.3%
Stability RE (%) ([4]; urine, autosampler rack (4 °C) for 24 h, spiked 1600 ng/mL): 3.9%
Stability RE (%) ([4]; urine, room temperature for 2 h, spiked 10 ng/mL): −12.5%
Stability RE (%) ([4]; urine, room temperature for 2 h, spiked 1000 ng/mL): −1.5%
Stability RE (%) ([4]; urine, room temperature for 2 h, spiked 1600 ng/mL): 3.4%
Stability RE (%) ([4]; urine, three freeze/thaw cycles, spiked 10 ng/mL): −9.4%
Stability RE (%) ([4]; urine, three freeze/thaw cycles, spiked 1000 ng/mL): −6.4%
Stability RE (%) ([4]; urine, three freeze/thaw cycles, spiked 1600 ng/mL): −2.6%
Stability RE (%) ([4]; urine, −80 °C for 30 days, spiked 10 ng/mL): −8.7%
Stability RE (%) ([4]; urine, −80 °C for 30 days, spiked 1000 ng/mL): −5.4%
Stability RE (%) ([4]; urine, −80 °C for 30 days, spiked 1600 ng/mL): −5.5%
effects on body weight, dietary intake, histopathological parameters of liver, lungs and kidneys ([5]; at 3000 mg/kg oral gavage): no substantial effects
acute toxicity ([5]; oral gavage): no significant acute toxicity
maximum tolerated dose ([5]; oral gavage): 3000 mg/kg
decrease of serum creatinine level ([6]; p < 0.01): 38.99%
downregulation of renal NOX2 expression ([6]; p < 0.05): 16.23%
serum level of angiotensin II (Ang II) [7]: significantly reduced
serum level of angiotensin-converting enzyme (ACE) [7]: significantly reduced

CC1(C)C2CCC1(C)C(OC(=O)c1cc(O)c(O)c(O)c1)C2 (stereo not drawn) [bornyl gallate]
tissue distribution [8]: pronounced renal accumulation alongside measurable brain distribution
